Source: patent US10238623B2, “C14-hydroxyl esterified amino acid derivative of triptolide, and preparation method and use thereof” (HANGZHOU WEBEN PHARMACEUTICALS INC, priority 2015, dated 2019)
“And” between values parts separate entries of the source, which are not always exact repeats. Equal values may be shown once.

Assays:
[1] = tested on: Molt-4; experiment: MTT growth inhibition, Molt-4 cells, 72 h; type: cell-based, human; details: Homo sapiens, MOLT-4, 72 h
Protocol: 5000 well-grown leukemia cells or normal human blood cells were taken and seeded into wells of a 96-well cell culture plate. The medium was 1640 cell medium containing 10% fetal bovine serum. 14-D-Valine-TPL with different concentrations was added, and after being uniformly mixed, the plate was placed in a carbon dioxide (5% CO2) cell incubator, and incubated at 37° C. for 72 hours. The concentration of live cells was then determined using the MTT assay. In this experiment, the cell viability in the control group (without the compound treatment) was set to be 100%, and the cell viability (%) after the action of the compound the half maximal growth inhibitory concentration of leukemia cells at 72 hours (IC50 value at 72 hours) and the therapeutic window index were calculated. Therapeutic window index=IC50 value of normal blood cells/IC50 value of leukemia cells. […] A larger therapeutic window indicates a better selectivity of the compound for tumor cells.
(§1) 5000 well-grown leukemia cells were taken and seeded into wells of a 96-well cell culture plate. The medium was 1640 cell medium containing 10% fetal bovine serum. 14-D-Valine-TPL with different concentrations was added, and after being uniformly mixed, the plate was placed in a carbon dioxide (5% CO2) cell incubator, and incubated at 37° C. for 72 hours. The concentration of live cells was then determined using the MTT assay. In this experiment, the cell viability in the control group (without the compound treatment) was set to be 100%, and the cell viability (%) after the action of the compound and the half maximal growth inhibitory concentration of leukemia cells at 72 hours (IC50 value at 72 hours) were calculated.
as §1, with “well-grown lymphocytes” for “well-grown leukemia cells”

[2] = tested on: KG-1; experiment: MTT growth inhibition, KG-1 cells, 72 h; type: cell-based; details: Homo sapiens, KG-1, MTT
Protocol: as §1

[3] = tested on: KG-1a; experiment: MTT growth inhibition, KG-1a cells, 72 h; type: cell-based; details: Homo sapiens
Protocol: as §1

[4] = tested on: U937; experiment: MTT growth inhibition, U937 cells, 72 h; type: cell-based; details: Homo sapiens, U-937
Protocol: as §1

[5] = tested on: human acute myelogenous leukemia KG-1a cells; experiment: KG-1a subcutaneous xenograft in NOD/SCID mice; type: in vivo; details: for Tumor weight: KG-1a, individual mice, end of experiment
Protocol: (§2) 7-week old female NOD/SCID mice were taken and inoculated subcutaneously with 1×10^7 cells (0.2 ml) per mouse in axilla, with human acute myelogenous leukemia KG-1a cells on the left and human acute monocytic leukemia THP-1 cells on the right. When tumors grew to a tumor size of around 0.5 cm, the mice were randomized into groups with 3 mice each. An equivalent amount of PBS was used for the control group, and the 14-D-Valine-TPL group was divided into two groups with 0.2 mg/kg body weight and 0.4 mg/kg body weight: intragastric administration 2 times a day (one at 8 a.m. and one at 4 p.m.) for consecutive 14 days of treatment. An observation was made for total 30 days, during which the conditions of the mice such as tumor size, weight, activity, diet, and the like were measured. At the end of the experiment, the mice were sacrificed, tumor tissues were taken and the tumors were weighed, and major organs and tissues of the mice such as liver, spleen, heart, lung, large intestine, small intestine, and the like were examined.
as §2, with “the left.” for “the left and human acute monocytic leukemia THP-1 cells on the right.”, “around 50-100 mm^3,” for “around 0.5 cm,”, “the TPL-LLV” for “the 14-D-Valine-TPL”, “with 0.23” for “with 0.2”, “and 0.46” for “and 0.4”, “intragastric administration,” for “intragastric administration”
as §2, with “the left.” for “the left and human acute monocytic leukemia THP-1 cells on the right.”, “around 50-100 mm^3,” for “around 0.5 cm,”, “the TPL-DLV” for “the 14-D-Valine-TPL”, “with 0.23” for “with 0.2”, “and 0.46” for “and 0.4”, “intragastric administration,” for “intragastric administration”
as §2, with “the left.” for “the left and human acute monocytic leukemia THP-1 cells on the right.”, “around 50-100 mm^3,” for “around 0.5 cm,”, “the TPL-DLV” for “the 14-D-Valine-TPL”, “with 0.32” for “with 0.2”, “and 0.64” for “and 0.4”, “intragastric administration,” for “intragastric administration”

[6] = biological target: T1, XPB (Homo sapiens, UniProt P19447); experiment: Immunoblot of XPB level in THP-1 cells, 48 h; type: cell-based; details: 160 nM
T1 construct: endogenous in cells; host or cells: THP-1
T1 sequence (P19447 whole entry): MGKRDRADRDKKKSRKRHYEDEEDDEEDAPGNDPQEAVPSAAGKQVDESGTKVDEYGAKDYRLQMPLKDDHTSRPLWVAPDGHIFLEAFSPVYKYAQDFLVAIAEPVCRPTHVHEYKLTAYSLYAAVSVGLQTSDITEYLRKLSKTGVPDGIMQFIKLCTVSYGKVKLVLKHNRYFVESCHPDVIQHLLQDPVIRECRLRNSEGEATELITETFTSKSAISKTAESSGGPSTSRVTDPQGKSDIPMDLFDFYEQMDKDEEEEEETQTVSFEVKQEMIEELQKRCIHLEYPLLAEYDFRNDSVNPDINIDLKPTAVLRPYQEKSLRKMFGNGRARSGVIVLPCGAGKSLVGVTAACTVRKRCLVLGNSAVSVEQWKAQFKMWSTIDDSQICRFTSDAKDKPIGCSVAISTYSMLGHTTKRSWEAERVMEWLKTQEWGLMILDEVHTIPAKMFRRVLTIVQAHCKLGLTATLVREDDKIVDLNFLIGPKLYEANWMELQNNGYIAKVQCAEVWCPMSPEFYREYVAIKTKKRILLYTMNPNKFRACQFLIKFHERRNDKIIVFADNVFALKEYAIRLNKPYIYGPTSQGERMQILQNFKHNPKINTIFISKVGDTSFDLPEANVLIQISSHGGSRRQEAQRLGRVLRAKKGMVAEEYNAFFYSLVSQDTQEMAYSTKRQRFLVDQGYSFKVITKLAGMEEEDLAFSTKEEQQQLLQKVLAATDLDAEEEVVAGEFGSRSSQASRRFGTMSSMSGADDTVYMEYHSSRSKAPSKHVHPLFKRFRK
Protocol: (§3) Well-grown leukemia cells were taken and seeded into wells of a 6-well cell culture plate, with a density of 1×10^6/ml. The medium was 1640 cell medium containing 10% fetal bovine serum. 14-D-Valine-TPL with different concentrations was added, and after being uniformly mixed, the plate was placed in a carbon dioxide (5% CO2) cell incubator, and incubated at 37° C. for 48 hours. Cellular proteins were then extracted, and the immunoblot technique was used to detect the expression levels of XPB and Pol II.

[7] = tested on: RNA polymerase II (Pol II); experiment: Immunoblot of Pol II level in THP-1 cells, 48 h; type: cell-based, human; details: 160 nM
Protocol: as §3

**Q.** With `CC(C)[C@@H](N)C(=O)O[C@@H]1[C@@]2(C(C)C)O[C@H]2[C@@H]2O[C@]23[C@]12O[C@H]2C[C@H]1C2=C(CC[C@@]13C)C(=O)OC2` [14-D-Valine-TPL, 14-Dextro-Valine-Triptolide] as the compound, how does the IC50 [1] read?
**A.** Its IC50 is 0.0108 µM.

**Q.** What about the IC50 [2] of the same compound?
**A.** The IC50 was 0.049 µM.

**Q.** What about the IC50 [3] of the same compound?
**A.** The IC50 was 0.031 µM.

**Q.** What about the IC50 [4] of the same compound?
**A.** The IC50 was 0.06 µM.

**Q.** What about the “growth of KG-1a in mice in vivo (in words)” value ([5]; KG-1a xenograft, intragastric 2 times a day, 14 days, dose-dependent effect) of the same compound?
**A.** Its value is “significantly inhibit the growth”.

**Q.** And the Tumor weight ([5]; trifluoroacetate 0.2 mg/kg intragastric 2 times a day, 14 days, listed as DV)?
**A.** The Tumor weight was 0.42 g and 1.49 g and 0.06 g and 0.98 g and 0.2 g and 0.5 g.

**Q.** And the Tumor weight ([5]; trifluoroacetate 0.4 mg/kg intragastric 2 times a day, 14 days)?
**A.** The Tumor weight was 0 g.

**Q.** What about the “regression of KG-1a xenograft tumors” value ([5]; dose of 0.4 mg per kilogram of the body weight) of the same compound?
**A.** The value was “complete regression”.

**Q.** What about the “level of XPB (immunoblot)” value [6] of the same compound?
**A.** The value was “significantly inhibited”.

**Q.** And the “level of Pol II (immunoblot)” value [7]?
**A.** Its value is “significantly inhibited”.
